Experimental data published in patent US20090098049A1, “Targeting transducible molecules to specific cell types” (The Regents of the University of California, priority 2004, published 2009).
Non-standard residues stand in square brackets, D forms with d. No end group written: not given here.

Experiments:
CXCR4 receptor = target: T1, CXCR4 receptor (Homo sapiens, UniProt P61073); test: CXCR4 binding assay (inhibition of 12G5-PE anti-CXCR4 antibody binding, flow cytometry); details: linked DV3 and TAT domains versus single domains, FIG. 1B
T1 construct: CXCR4 expressing Namalwa cells were washed 3 times with PBS/0.5% BSA and incubated on ice; endogenous in cells; host or cells: Namalwa B cells (human Burkitt's lymphoma, ATCC)
Protocol: (a) Sequences of peptides used in some embodiments. All peptides were synthesized using D-isomer residues, except for the TAT-RxL peptides. (b) Human Namalwa lymphoma cells that overexpress CXCR4 receptor were incubated with increasing concentrations of peptide, followed by fluorescent PE-conjugated anti-CXCR4 monoclonal antibody incubation, then analyzed for antibody binding to CXCR4 receptor (mean fluorescence) by flow cytometry. Graph plots relative fluorescence of cells with respect to cells treated with antibody only. Data represents the mean and standard error from three independent experiments.
CXCR4 binding assay. CXCR4 expressing Namalwa cells were washed 3 times with PBS/0.5% BSA and incubated on ice with phycoerythrin (PE)-labeled anti-CXCR4 monoclonal antibody (12G5-PE, R&D Systems, WI) and peptide. PE-labeled isotype matched antibody was used to control for non-specific cell surface binding. […]
DV3 Enhances the Affinity of TAT Peptides for CXCR4 Expressing Cells. […] Human Namalwa Burkitt's lymphoma cells overexpressing the CXCR4 receptor were treated with various peptides to block the CXCR4 receptor, then incubated with phycoerythrin (PE) conjugated anti-CXCR4 antibody and analyzed by flow cytometry.

[1] = tested on: CXCR4-expressing Namalwa lymphoma cells; test: Namalwa lymphoma cell killing (trypan blue exclusion; apoptosis by DNA content); assay type: cell-based, Human; details: for cell viability / cell number (in words): 30 μM peptide, single peptides or domains in trans, FIG. 3A
Protocol: (a) Namalwa lymphoma cells were treated with 40 μM TATp53C′ or DV3-TATp53C′ peptide for 48 h. Cell viability was assessed by trypan blue exclusion. Data represents the mean and standard error from three independent experiments. […] Cells were treated with 5 μM peptide for 24 hours and analyzed for DNA content by flow cytometry. […] Cells were treated with indicated concentrations of cdk2 antagonists TAT-RxL or DV3-TAT-RxL peptides for 48 h. Cell viability was assessed by trypan blue exclusion. Data represents the mean and standard error from three independent experiments. (e) Namalwa lymphoma (CXCR4+) cells were treated with DV3-TATp53C′, TATp53C′ or DV3-TATp53MUT peptides for 24 hours. Apoptosis was determined by <2N DNA content as measured by flow cytometry and DNA staining.
Namalwa lymphoma cells were treated with 30 μM peptide for 48 h. Cell viability was assessed by trypan blue exclusion. Data represents the mean and standard error from three independent experiments. […] Cells were treated with 30 μM DV3-TATp53C′ or parental TATp53C′ peptide for 48 h in the presence or absence of a 200 μM excess of DV3 peptide. Cell viability was assessed by trypan blue exclusion. Data represents the mean and standard error from three independent experiments.
Cell Culture and Flow Cytometry. TA3/St, H1299 and 293T cells were maintained in DMEM plus 10% fetal bovine serum (FBS) and penicillin/streptomycin (P/S). Namalwa B cells (ATCC) were maintained in RPMI plus 10% FBS, P/S. All cells were maintained at 37° C. in 5% CO2. Short-term cell viability was assessed by counting Trypan blue excluding cells on a hemocytometer. For cell cycle analysis, peptide treated cells were analyzed by FACS with 10 μg/ml propidium iodide in 0.5% NP-40. DNA profiles were analyzed using a FACScan and CellQuest software (Becton Dickinson, San Jose, Calif.).

[2] = target: CXCR4 receptor on human Namalwa Burkitt's lymphoma cells (human) (UniProt P61073); test: flow cytometry on Namalwa cells; inhibition of 12G5-PE binding to CXCR4
[3] = tested on: TA3/St mammary carcinoma cells; test: Peptide treatment of CXCR4 non-expressing TA3/St cells (cell cycle by flow cytometry); assay type: cell-based; details: 5 μM peptide, 24 hours, DNA content by flow cytometry, FIG. 2B
Protocol: (§1) (a) Namalwa lymphoma cells were treated with 40 μM TATp53C′ or DV3-TATp53C′ peptide for 48 h. Cell viability was assessed by trypan blue exclusion. Data represents the mean and standard error from three independent experiments. (b) DV3-TATp53C′ and TATp53C′ peptides induce similar level of p53-dependent G1 cell cycle arrest in CXCR4 non-expressing TA3/St mammary carcinoma cells. Cells were treated with 5 μM peptide for 24 hours and analyzed for DNA content by flow cytometry. (c) DV3-TATp53C′, TATp53C′ and control DV3 peptide (30 μM) have no effect on CXCR4 non-expressing, p53-deficient H1299 lung adenocarcinoma cells. […] Cells were treated with indicated concentrations of cdk2 antagonists TAT-RxL or DV3-TAT-RxL peptides for 48 h. Cell viability was assessed by trypan blue exclusion. Data represents the mean and standard error from three independent experiments. […] Apoptosis was determined by <2N DNA content as measured by flow cytometry and DNA staining.
(§2) Cell Culture and Flow Cytometry. […] Short-term cell viability was assessed by counting Trypan blue excluding cells on a hemocytometer. For cell cycle analysis, peptide treated cells were analyzed by FACS with 10 μg/ml propidium iodide in 0.5% NP-40. DNA profiles were analyzed using a FACScan and CellQuest software (Becton Dickinson, San Jose, Calif.).

[4] = tested on: H1299 lung adenocarcinoma cells; test: Peptide treatment of p53-deficient H1299 cells; assay type: cell-based, human; details: 30 μM peptide, FIG. 2C
Protocol: as §1, §2

Namalwa lymphoma cells = test: Mouse model of metastatic peritoneal lymphoma (survival); assay type: in vivo; details: SCID mice, Namalwa cells i.p., 180 nmol peptide once a day for 12 days, FIG. 5
Protocol: FIG. 5. Targeted DV3-TATp53C′ peptide has enhanced ability to treat mouse model of aggressive, metastatic peritoneal lymphoma. Namalwa lymphoma cells were intraperitoneally injected into SCID mice and allowed to proliferate for 48 hours. Mice were then injected once a day for 12 days with vehicle control (n=10), or 180 nmol DV3-TATp53C′ peptide (n=11), non-targeted, parental TATp53C′ peptide (n=5), or control DV3-only peptide (n=5).

Chain of CXCR4 receptor on human Namalwa Burkitt's lymphoma cells (human) (P61073 whole entry): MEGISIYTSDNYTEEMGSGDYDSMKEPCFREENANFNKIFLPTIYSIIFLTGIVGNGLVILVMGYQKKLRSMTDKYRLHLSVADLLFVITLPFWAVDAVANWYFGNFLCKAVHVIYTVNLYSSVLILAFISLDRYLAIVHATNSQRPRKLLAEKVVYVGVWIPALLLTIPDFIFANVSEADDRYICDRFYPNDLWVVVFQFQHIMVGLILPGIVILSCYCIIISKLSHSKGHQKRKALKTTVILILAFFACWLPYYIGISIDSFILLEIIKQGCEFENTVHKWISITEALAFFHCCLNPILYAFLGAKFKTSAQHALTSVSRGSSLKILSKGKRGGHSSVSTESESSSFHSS
T1 sequence (P61073 whole entry, the tested form may be a part): as the sequence (P61073 whole entry) above

With CC(C)C[C@@H](N)C(=O)NCC(=O)N[C@H](C)C(=O)N[C@H](CO)C(=O)N[C@H](Cc1c[nH]c2ccccc12)C(=O)N[C@H](Cc1c[nH]cn1)C(=O)N[C@H](CCCNC(=N)N)C(=O)N1CCC[C@@H]1C(=O)N[C@H](CC(=O)O)C(=O)N[C@H](CCCCN)C(=O)NCC(=O)N[C@H](CCCNC(=N)N)C(=O)N[C@H](CCCNC(=N)N)C(=O)N[C@H](CCCNC(=N)N)C(=O)N[C@H](CCC(N)=O)C(=O)N[C@H](CCCNC(=N)N)C(=O)N[C@H](CCCNC(=N)N)C(=O)N[C@H](CCCCN)C(=O)N[C@H](CCCCN)C(=O)N[C@H](CCCNC(=N)N)C(=O)NCC(=O)O [DV3-TAT] the “increased affinity for the CXCR4 receptor” value (CXCR4 receptor) was roughly 100 fold and the “cell viability / cell number (in words)” value ([1]; Namalwa cells, 48 h) was “minimal effects on cell number”.

DV3-TAT peptide showed an IC50 [2] of less than 10 nM and a fold increased affinity (against DV3 or TAT peptide alone) [2] of 100 fold.

DV3-TATp53C′ peptide gave an IC50 [2] of less than 10 nM.

With “[dL]G[dA][dS][dW][dH][dR][dP][dD][dK]G[dR][dR][dR][dQ][dR][dR][dK][dK][dR]G[dK][dK][dH][dR][dS][dT][dS][dQ]G[dK][dK][dS][dK][dL][dH][dS][dS][dH][dA][dR][dS]G [DV3-TATp53C′]” the “reduction of cell number” value ([1]; 40 μM peptide, 48 h, trypan blue exclusion, FIG. 2A) was greater than 80%, the “cell killing in presence of excess competing DV3 peptide” value ([1]; Namalwa cells, 30 μM peptide co-administered with 200 μM DV3 peptide, 48 h, FIG. 3B) was “reduced the potency of DV3-TATp53C′ peptide to levels similar to that of parental TATp53C′ peptide” and the “cell viability / cell number (in words)” value ([1]; Namalwa cells, 48 h) was “decreased viability to a significantly greater extent than treatment with parental TAT-p53C′ peptide”. The “cell number / cell killing (in words)” value ([1]; Namalwa cells, p53 peptides, FIG. 2A) was “enhanced cell killing”, the “G1 cell cycle arrest” value [3] was “induced a G1 arrest that was indistinguishable from treatment with parental TATp53C′ peptide” and the “effect on p53-deficient H1299 cells” value [4] was “little to no effect”. For the same molecule, the median survival (Namalwa lymphoma cells) was 41 days.

Molecule [dL]G[dA][dS][dW][dH][dR][dP][dD][dK] [DV3 peptide (CXCR4 receptor ligand)] has an IC50 [2] of 1000 nM.
